Counter-ions that a name gives are not always drawn.
Experiments:
[1] = target: T1, angiotensin-converting enzyme (Oryctolagus cuniculus, UniProt P12822); assay: in vitro inhibition of the angiotensin-converting enzyme (hippuryl-histidyl-leucine substrate); assay type: biochemical, rabbit; conditions: in vitro test; enzyme from lungs of adult male rabbits; 37° C., 30 minutes
T1 construct: angiotensin-converting enzyme preparation (from lungs of adult male rabbits); from tissue; host or cells: lungs of adult male rabbits
T1 sequence (P12822 34-1310): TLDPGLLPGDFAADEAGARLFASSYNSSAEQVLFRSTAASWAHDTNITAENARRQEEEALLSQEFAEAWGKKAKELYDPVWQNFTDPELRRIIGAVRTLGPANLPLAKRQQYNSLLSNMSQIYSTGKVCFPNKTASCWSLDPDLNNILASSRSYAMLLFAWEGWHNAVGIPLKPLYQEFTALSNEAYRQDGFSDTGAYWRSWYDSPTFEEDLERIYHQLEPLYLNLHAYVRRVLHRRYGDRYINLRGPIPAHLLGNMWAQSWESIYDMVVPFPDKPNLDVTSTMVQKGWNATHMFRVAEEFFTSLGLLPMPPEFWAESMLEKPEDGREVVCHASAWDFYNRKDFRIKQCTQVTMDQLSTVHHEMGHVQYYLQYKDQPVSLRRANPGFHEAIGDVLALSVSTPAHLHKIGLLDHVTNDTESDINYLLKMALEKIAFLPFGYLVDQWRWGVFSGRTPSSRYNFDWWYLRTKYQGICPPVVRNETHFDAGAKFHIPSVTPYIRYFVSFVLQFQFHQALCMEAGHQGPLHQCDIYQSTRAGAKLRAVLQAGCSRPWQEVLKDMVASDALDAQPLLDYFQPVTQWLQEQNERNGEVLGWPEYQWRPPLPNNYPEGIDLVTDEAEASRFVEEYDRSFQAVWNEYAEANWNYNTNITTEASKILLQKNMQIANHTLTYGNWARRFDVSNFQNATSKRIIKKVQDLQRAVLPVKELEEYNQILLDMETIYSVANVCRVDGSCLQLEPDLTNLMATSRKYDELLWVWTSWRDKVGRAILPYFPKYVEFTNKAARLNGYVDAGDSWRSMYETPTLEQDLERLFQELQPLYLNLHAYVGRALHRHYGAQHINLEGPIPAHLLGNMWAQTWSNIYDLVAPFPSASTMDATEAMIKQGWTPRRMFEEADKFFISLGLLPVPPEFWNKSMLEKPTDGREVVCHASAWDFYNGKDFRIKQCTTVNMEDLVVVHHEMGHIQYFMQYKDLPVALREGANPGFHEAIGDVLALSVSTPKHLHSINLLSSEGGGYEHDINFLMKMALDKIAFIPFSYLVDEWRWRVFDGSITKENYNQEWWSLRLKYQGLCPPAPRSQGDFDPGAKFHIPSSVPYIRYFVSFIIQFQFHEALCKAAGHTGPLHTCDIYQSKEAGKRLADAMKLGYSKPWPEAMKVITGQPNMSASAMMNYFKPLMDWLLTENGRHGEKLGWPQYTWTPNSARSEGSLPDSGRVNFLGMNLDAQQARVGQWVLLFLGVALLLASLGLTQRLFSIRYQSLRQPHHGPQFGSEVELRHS
Description: Biophys. Acta 293, 451 (1973). According to this method, said compounds are dissolved at about 1 mM concentration in phosphate buffer. […] Said solutions are incubated at 37° C. for 30 minutes and combined with 0.75 ml of 0.6N aqueous sodium hydroxide to stop further reaction. Then 100 microliters of a 0.2% solution of o-phthalaldehyde in methanol are added at room temperature, and 10 minutes later 100 microliters of 6N hydrochloric acid. These samples are read against water in a spectrophotometer set at 360 nm, and the optical densities thereof estimated. They are corrected for the standard curve via a conversion factor expressing nanomoles of histidyl-leucine formed during said 30 minute incubation period. The results are plotted against concentration to determine the IC50, i.e., the concentration of the compound which gives half the activity of the control sample. Illustrative of the invention, and according to the test methods previously described, the following angiotensin-converting enzyme inhibition data is obtained.

[2] = test system: angiotensin-converting enzyme; assay: in vivo inhibition of the Angiotensin I induced pressor response in anesthetized normotensive rats; conditions: p.o. administration of 3.3 mg/kg (rat), at 1 hr
Description: Angiotensin I is hydrolyzed by the action of said converting enzyme to the potent pressor substance Angiotensin II. The inhibition of said enzyme prevents the generation of Angiotensin II from I and, therefore, attenuates any pressor response following an Angiotensin I challenge.
The corresponding in vivo test is performed with male, normotensive rats, which are anesthetized with sodium 5-ethyl-5-(1-methylpropyl)-2-thiobarbiturate. A femoral artery and saphenous vein are cannulated respectively for direct blood pressure measurement and the i.v. administration of Angiotensin I and a compound of this invention. After the basal blood pressure is stabilized, pressor responses to 3 challenges of 333 ng/kg angiotensin I i.v., at 5 minute intervals, are obtained. Such pressure resonses are usually again obtained at 5, 10, 15, 30 and 60 minutes after i.v. administration or 1, 2, 3 and 4 hours after p.o. administration of the compound to be tested, and compared with the initial responses. Any observed decrease of said pressor response caused by the compounds of the invention is an indication of Angiotensin I converting enzyme inhibition.
Illustrative of the invention, and according to the test methods previously described, the following angiotensin-converting enzyme inhibition data is obtained.

IC50 [1] [nM]	SMILES	inhibition of Angiotensin I pressor response (in vivo test) [2] [%]
27	NCCCC[C@H](N[C@H]1CCCc2ccccc2N(CC(=O)O)C1=O)C(=O)O [S,S compound of example 12, 3-[(5-amino-1-(S)-carboxypentyl)amino]-1-carboxymethyl-3,4,5,6-tetrahydro-(3S)-1-benzazocin-2-1H-one hydrochloride]	–
7.5	O=C(O)CN1C(=O)[C@@H](N[C@@H](CCc2ccccc2)C(=O)O)CCCc2ccccc21 [example 7a, 1-carboxymethyl-3-(1-carboxy-3-phenyl-(1S)-propylamino)-3,4,5,6-tetrahydro-(3S)-1-benzazocin-2-1H-one hydrochloride]	–
–	CCOC(=O)[C@H](CCc1ccccc1)N[C@H]1CCCc2ccccc2N(CC(=O)O)C1=O [example 8a, 1-carboxymethyl-3-(1-ethoxycarbonyl-3-phenyl-(1S)-propylamino-3,4,5,6-tetrahydro-(3S)-1-benzazocin-2-1H-one hydrochloride]	69

From patent US4537885A, “Certain benzazocinone and benzazoninone derivatives” (Ciba Geigy Corporation, priority 1984, dated 1985)
